Experimental data taken from patent US7772425B2, “Vitamin D receptor modulators” (Eli Lilly and Company, priority 2002, dated 2010).
Values joined by “and” are separate entries in the source; they are usually repeats but may differ in a detail not shown here. Equal values may be shown once. Read-outs that look alike come from different tables or passages of the source.

Key:
IL-10 = assay: human IL-10 induction assay in PBMCs; type: cell-based; settings: TPA/PHA treated human PBMCs, IL-10 immunoassay of supernatant
From the text: The evaluation of the novel compounds of the invention for psoriasis is done using the Keratinocyte Proliferation Assay in combination with other assays that measure inhibition of IL-2 production and stimulation of IL-10 production in peripheral blood mononuclear cells (PBMCs).
6. The IL-10 Induction Assay
This is an in vitro efficacy assay for psoriasis, abscess and adhesion. Psoriasis involves both keratinocytes and immune cells. IL-10 is a unique cytokine because it is anti-inflammatory and immunosuppressive. This assay tells us whether a VDRM is able to function as an agonist in PBMCs (primary blood mononuclear cells) or not. A lower EC50 value is desirable in this assay since a compound with a lower EC50 value will be a better agonist in PBMCs.
(6) Materials and Method for human IL-10 Induction Assay:
Isolation of peripheral blood mononuclear cells (PBMCs):
• A. Collect 50 ml of human blood and dilute with media, RPMI-1640. • B. Prepare sterile tubes with ficol. • C. Add diluted blood to tubes. • D. Centrifuge. • E. Discard the top layer and collect the cells from middle layer. • F. Divide all cells into four tubes and add media. • G. Centrifuge. • H. Aspirate off media and resuspend. • I. Collect all cells • J. Centrifuge. at 1200 rpm for 10 minutes. • K. Resuspend in RPMI-1640 with 2% FBS and count cells Stimulation of PBMC: • L. Prepare TPA in DMSO. • M. Dissolve PHA in water. • N. Plate TPA/PHA treated PBMCs in well plates. • O. Incubate. Treatment: • P. Prepare all compound dilutions in plain RPMI-1640 media. • Q. Add diluted compound. • R. Incubate. Sample Collection and assay: • S. Remove all the cells by centrifugation and assay the supernatant for IL-10 by immunoassay. • 1) T. Perform IL-10 assay using anti-human IL-10 antibody coated beads, as described by the manufacturer (Linco Research Inc., St. Charles, Mo.).

rat osteocalcin promoter = assay: OCN (osteocalcin) promoter assay in RG-15 (ROS 17/2.8) cells; type: cell-based; settings: 48 hr treatment, luciferase
Procedure, shortened: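 Rat osteoblast-like RG-15 (ROS 17/2.8) cells stably carrying a luciferase reporter driven by the osteocalcin promoter, treated with compounds in DMSO (0.01% v/v final) in medium with 2% FBS. After 48 hr at 37 °C, cells were lysed and luciferase activity measured.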

female DBF mice = assay: Mouse hypercalcemia assay; type: in vivo; settings: orally via gavage for 6 days; serum ionized calcium 6 hours after last dosing
From the text: 4. The Mouse Hypercalcemia Assay
(4) Materials and Method for The Mouse Hypercalcemia Assay: […]

[1] = tested on: KERtr cells (Human skin keratinocyte); assay: Keratinocyte proliferation assay; type: cell-based; settings: BrdU incorporation, read-out: Kera. Prolif. IC50
Procedure: 5. The Keratinocyte Proliferation Assay
This Assay is indicative for the treatment of psoriasis.
(5) The Keratinocyte Proliferation Assay:
KERtr cells (Human skin keratinocyte transformed with a retrovirus vector, obtained from ATCC) were plated in 96-well flat-bottomed plates (3000 cells/well) in 100 μl keratinocyte serum free medium supplemented with bovine pituitary extract in the absence of EGF (Life Technologies, Rockville, Md.) and incubated at 37° C. for two days. The cells were treated with various concentrations of VDR ligands (ten-fold serial dilution from 10,000 nM to 0.1 nM in triplicate), dissolved in 100 μl keratinocyte serum free medium supplemented with bovine pituitary extract in the absence of EGF and incubated at 37° C. for 72 hr. BrdU (5-bromo-2′-deoxyuridine) incorporation was analyzed as a measure of DNA replication (Cell proliferation ELISA kit, Roche Diagnostics, Indianapolis, Ind.) and absorbance was measured at 405 nm. Potency values (IC50) values were determined as the concentration (nM) of compound that elicited a half-maximal response.

[2] = Homo sapiens, Keratinocyte, 72 h

Row | Compound | IC50 (IL-10; Homo sapiens, PBMC) | EC50 (rat osteocalcin promoter) | Mouse Hypercal (female DBF mice) | IC50 [1, 2] | IC50 ([1]; 72 hr) | IC50 (IL-10)
1 | CCC(CC)(c1ccc(OCC(O)C(C)(C)C)c(C)c1)c1ccc(C(=O)Nc2nnn[nH]2)c(C)c1 (single isomer, unassigned) [Ex. 12a, 3′-[4-(2-hydroxy-3,3-dimethylbutoxy)-3-methylphenyl]-3′-[4-(tetrazol-5-ylaminocarbonyl)-3-methylphenyl]pentane] | 52 nM | 1 nM | 300 µg/kg/day | 4 nM |  | 
2 | CCC(CC)(c1ccc(OC(C)C(O)C(C)(C)C)c(C)c1)c1ccc(C(=O)N[C@H](C)C(=O)O)c(C)c1 (some centres unmarked) [Ex. 46, (D)-2-(4-{1-ethyl-1-[4-(2-hydroxy-1,3,3-trimethyl-butoxy)-3-methyl-phenyl]-propyl}-2-methyl-benzoylamino)-propionic acid] | 33 nM | 2 nM and 3 nM | 3000 µg/kg/day |  | 21 nM | 
3 | CCC(CC)(c1ccc(CC2SC(=O)NC2=O)c(C)c1)c1ccc(OCC(O)C(C)(C)C)c(C)c1 (single isomer, unassigned) [Ex. 50, 5-(4-{1-ethyl-1-[4-(2-hydroxy-3,3-dimethyl-butoxy)-3-methyl-phenyl]-propyl}-2-methyl-benzyl)-thiazolidine-2,4-dione] |  | 0.2 nM | 300 µg/kg/day |  | 3 nM | 4 nM
4 | CCC(CC)(c1ccc(OC(C)C(O)C(C)(C)C)c(C)c1)c1ccc(C(=O)N(C)CC(=O)O)c(C)c1 (single isomer, unassigned) [Ex. 52, [(4-{1-Ethyl-1-[4-(2-hydroxy-1,3,3-trimethyl-butoxy)-3-methyl-phenyl]-propyl}-2-methyl-benzoyl)-methyl-amino]-acetic acid] | 154 nM | 4 nM | >3000 µg/kg/day |  | 52 nM | 
5 | CCC(CC)(c1ccc(OCC(O)C(C)(C)C)c(C)c1)c1ccc(C(=O)Nc2nnn[nH]2)c(C)c1 (single isomer, unassigned) [Ex. 26, 3′-[4-(2-hydroxy-3,3-dimethylbutoxy)-3-methylphenyl]-3′-[4-(tetrazol-5-ylaminocarbonyl)-3-methylphenyl]pentane] |  | 1 nM | 300 µg/kg/day |  | 4 nM | 52 nM
6 | CCC(CC)(c1ccc(OCC(O)C(C)(C)C)c(C)c1)c1ccc(C(=O)NCC(=O)O)c(C)c1 (single isomer, unassigned) [Ex. 25A, (4-{1-ethyl-1-[4-(2-hydroxy-3,3-dimethylbutoxy)-3-methylphenyl]-propyl}-2-methylbenzoylamino)acetic acid] |  | 0.4 nM | <300 µg/kg/day |  | 1100 nM | 40 nM
7 | CCC(CC)(c1ccc(OCC(O)C(C)(C)C)c(C)c1)c1ccc(C(=O)N(C)CC(=O)O)c(C)c1 (single isomer, unassigned) [Ex. 19, [(4-{1-Ethyl-1-[4-(2-hydroxy-3,3-dimethyl-butoxy)-3-methyl-phenyl]-propyl}-2-methyl-benzoyl)-methyl-amino]-acetic acid] |  | 12 nM and 16 nM | 2000 µg/kg/day |  | 82 nM | 142 nM
8 | CCC(CC)(c1ccc(OC(C)C(O)C(C)(C)C)c(C)c1)c1ccc(C(=O)O)c(C)c1 (single isomer, unassigned) [Ex. 11, 3′-[4-(2-hydroxy-1,3,3-trimethylbutoxy)-3-methylphenyl]-3′-[4-carboxyl-3-methylphenyl]pentane] | 478 nM | 7 nM | 3000 µg/kg/day | 308 nM |  | 
